Patent US10829520B2, “Beta-hairpin peptidomimetics” (POLYPHOR AG, priority 2015, dated 2020)
Where a SMILES comes first, the peptide text is derived from it. Bridges are numbered along the chain shown (N, C = ends). [ ]: non-standard residue; d: D form. Pro(trans-4-F) = O=C(O)[C@@H]1C[C@@H](F)CN1; aThr = C[C@H](O)[C@H](N)C(=O)O; Tle = CC(C)(C)[C@H](N)C(=O)O; dDab = NCC[C@@H](N)C(=O)O; Nle = CCCC[C@H](N)C(=O)O; Orn = NCCC[C@H](N)C(=O)O; Dab = NCC[C@H](N)C(=O)O; Dap = NC[C@H](N)C(=O)O; Sar = CNCC(=O)O

Columns and labels:
Type in all cases: cell-based
[1] = system: Acinetobacter baumannii 872842; details: 872842
[2] = system: Acinetobacter baumannii DSM 30008; details: DSM 30008
Outline: (§1)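 Read-out is the minimal inhibitory concentration in μg/mL, taken as the lowest peptide level without visible growth after 18-20 h at 35° C. Testing followed CLSI broth microdilution in cation-adjusted Mueller-Hinton II broth plus 0.002% Polysorbate 80, with roughly 10^6 CFU/mL.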

Escherichia coli 926415 = details: 926415
[3] = system: Escherichia coli ATCC 25922; details: ATCC 25922
Outline: as §1

[4] = system: Klebsiella pneumoniae 968733; details: 968733
[5] = system: Klebsiella pneumoniae SSI #3010; details: SSI #3010
Outline: as §1

[6] = system: Pseudomonas aeruginosa ATCC 27853; details: ATCC 27853
Outline: as §1

[7] = system: human red blood cells (hRBC); assay: Hemolysis of human red blood cells; details: red cells of human, 1 h, 100 μg/mL
Outline: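 Washed fresh human erythrocytes (20% v/v, ~0.9×10^9 cells/mL final) were incubated with peptides at 100 μg/mL for 1 h at 37 °C with shaking. Supernatant OD540 measured; hemolysis expressed as % of 2.5% Triton X-100 lysis, with PBS/0.001% acetic acid as 0%.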

SMILES | Acinetobacter baumannii 872842 MIC [1] [µg/mL] | Acinetobacter baumannii DSM 30008 MIC [2] [µg/mL] | Escherichia coli 926415 MIC (Escherichia coli 926415) [µg/mL] | Escherichia coli ATCC 25922 MIC [3] [µg/mL] | Klebsiella pneumoniae 968733 MIC [4] [µg/mL] | Klebsiella pneumoniae SSI #3010 MIC [5] [µg/mL] | Pseudomonas aeruginosa ATCC 27853 MIC [6] [µg/mL] | Hemolysis at 100 μg/mL [7] [%]
CCCC[C@@H]1NC(=O)[C@@H]2CCCN2C(=O)[C@H]2CCCN2C(=O)[C@H](CO)NC(=O)[C@H](C)NC(=O)[C@H](C(C)(C)C)NC(=O)[C@@H](NC(=O)[C@H](Cc2c[nH]c3ccccc23)NC(=O)[C@@H](N)CCCNC(=N)N)CSSC[C@@H](C(=O)N[C@@H](CCN)C(=O)N[C@H](C(=O)N[C@@H](CCN)C(=O)N[C@H]2CCNC(=O)[C@H]([C@@H](C)O)NC(=O)[C@H](CCN)NC(=O)[C@H](CCN)NC(=O)[C@H](CC(C)C)NC(=O)[C@@H](Cc3ccccc3)NC(=O)[C@H](CCN)NC2=O)[C@@H](C)O)NC(=O)[C@H](Cc2ccc(O)cc2)NC(=O)[C@H](CO)NC1=O [Ex. 39] (H-RWC[Tle]AS[dP]P[Nle]SYC[Dab]T[Dab][Dab][Dab][dF]L[Dab][Dab]T; disulfide 3-12; lactam 16-C) | 0.5 | 0.25 | 0.25 | 0.25 | 2 | 0.125 | 0.25 | 4
CC(=O)N[C@@H](Cc1c[nH]c2ccccc12)C(=O)N[C@H]1CSSC[C@@H](C(=O)N[C@@H](CCCN)C(=O)N[C@@H](CCN)C(=O)N[C@@H](CCN)C(=O)N[C@H]2CCNC(=O)[C@H]([C@@H](C)O)NC(=O)[C@H](CCN)NC(=O)[C@H](CCN)NC(=O)[C@H](CC(C)C)NC(=O)[C@@H](Cc3ccccc3)NC(=O)[C@H](CCN)NC2=O)NC(=O)[C@H](Cc2ccc(O)cc2)NC(=O)[C@H](CO)NC(=O)[C@H](CC(C)C)NC(=O)[C@@H]2CCCN2C(=O)[C@H]2CCCN2C(=O)[C@H](CO)NC(=O)[C@@H](C)NC(=O)[C@H](C(C)(C)C)NC1=O [Ex. 112] (Ac-WC[Tle][dA]S[dP]PLSYC[Orn][Dab][Dab][Dab][Dab][dF]L[Dab][Dab]T; disulfide 2-11; lactam 15-C) | 1 | 1 | 1 | 1 | 0.5 | 0.5 | 4 | 1
CC(=O)N[C@@H](Cc1c[nH]c2ccccc12)C(=O)N[C@H]1CSSC[C@@H](C(=O)N[C@@H](CCCN)C(=O)N[C@H](CCN)C(=O)N[C@@H](CCN)C(=O)N[C@H]2CCNC(=O)[C@H]([C@@H](C)O)NC(=O)[C@H](CCN)NC(=O)[C@H](CCN)NC(=O)[C@H](CC(C)C)NC(=O)[C@@H](Cc3ccccc3)NC(=O)[C@H](CCN)NC2=O)NC(=O)[C@H](Cc2ccc(O)cc2)NC(=O)[C@H](CN)NC(=O)[C@H](Cc2ccccc2)NC(=O)[C@H](CC(C)C)NC(=O)[C@H]2CCCN2C(=O)[C@H](CO)NC(=O)[C@H](C)NC(=O)[C@H](C(C)(C)C)NC1=O [Ex. 110] (Ac-WC[Tle]AS[dP]LF[Dap]YC[Orn][dDab][Dab][Dab][Dab][dF]L[Dab][Dab]T; disulfide 2-11; lactam 15-C) | 0.25 | 0.25 | 0.25 | 0.5 | 2 | 0.5 | 1 | 2
CC(C)C[C@@H]1NC(=O)[C@@H](CC(C)C)NC(=O)[C@H](CCN)NC(=O)[C@@H](NC(=O)[C@H](CCN)NC(=O)[C@@H](NC(=O)[C@H](CCN)NC(=O)CNC(=O)[C@@H]2CSSC[C@H](NC(=O)[C@@H](N)CC(C)C)C(=O)N[C@@H](C(C)C)C(=O)N[C@@H](C)C(=O)N[C@@H](Cc3ccc(O)cc3)C(=O)N[C@H](CCN)C(=O)N3CCC[C@H]3C(=O)N[C@@H](CC(C)C)C(=O)N[C@@H](CO)C(=O)N[C@@H](Cc3ccc(O)cc3)C(=O)N2)[C@@H](C)O)CCNC(=O)[C@H]([C@@H](C)O)NC(=O)[C@H](CCN)NC(=O)[C@H](CCN)NC1=O [Ex. 157] (H-LCVAY[dDab]PLSYCG[Dab]T[Dab][Dab][Dab][dL]L[Dab][Dab]T; disulfide 2-11; lactam 16-C) | 0.03125 | 0.0625 | 0.125 | 0.0625 | 1 | 0.125 | 0.5 | <1
CC(C)C[C@@H]1NC(=O)[C@@H](CC(C)C)NC(=O)[C@H](CCN)NC(=O)[C@@H](NC(=O)[C@H](CCN)NC(=O)[C@@H](NC(=O)[C@H](CCN)NC(=O)CN(C)C(=O)[C@@H]2CSSC[C@H](NC(=O)[C@@H](N)CC(C)C)C(=O)N[C@@H](C(C)C)C(=O)N[C@@H](CO)C(=O)N[C@@H](CO)C(=O)N3CCC[C@@H]3C(=O)N3CCC[C@H]3C(=O)N[C@@H](CC(C)C)C(=O)N[C@@H](CN)C(=O)N[C@@H](Cc3ccc(O)cc3)C(=O)N2)[C@@H](C)O)CCNC(=O)[C@H]([C@@H](C)O)NC(=O)[C@H](CCN)NC(=O)[C@H](CCN)NC1=O [Ex. 159] (H-LCVSS[dP]PL[Dap]YC[Sar][Dab]T[Dab][Dab][Dab][dL]L[Dab][Dab]T; disulfide 2-11; lactam 16-C) | 0.25 | 0.5 | 2 | 0.5 | 8 | 1 | 2 | <1
CC(C)C[C@@H]1NC(=O)[C@@H](CC(C)C)NC(=O)[C@H](CCN)NC(=O)[C@@H](NC(=O)[C@H](CCN)NC(=O)[C@@H](NC(=O)[C@H](CCN)NC(=O)[C@H](CCN)NC(=O)[C@@H]2CSSC[C@H](NC(=O)[C@@H](N)Cc3c[nH]c4ccccc34)C(=O)N[C@@H](C(C)C)C(=O)N[C@@H](C)C(=O)N[C@@H](CO)C(=O)N3CCC[C@@H]3C(=O)N3C[C@H](F)C[C@H]3C(=O)N[C@@H](CC(C)C)C(=O)N[C@@H](CO)C(=O)N[C@@H](Cc3ccc(O)cc3)C(=O)N2)[C@@H](C)O)CCNC(=O)[C@H]([C@@H](C)O)NC(=O)[C@H](CCN)NC(=O)[C@H](CCN)NC1=O [Ex. 124] (H-WCVAS[dP][Pro(trans-4-F)]LSYC[Dab][Dab]T[Dab][Dab][Dab][dL]L[Dab][Dab]T; disulfide 2-11; lactam 16-C) | 0.25 | 0.125 | 0.125 | 0.0625 | 0.5 | 0.125 | 0.5 | 1
CCCC[C@@H]1NC(=O)[C@@H]2CCCN2C(=O)[C@H]2CCCN2C(=O)[C@H](CO)NC(=O)[C@H](CO)NC(=O)[C@H](C(C)(C)C)NC(=O)[C@@H](NC(=O)[C@@H](N)Cc2c[nH]c3ccccc23)CSSC[C@@H](C(=O)N[C@@H](C(=O)N[C@@H](CCN)C(=O)N[C@H](CCN)C(=O)N[C@H]2CCNC(=O)[C@H]([C@@H](C)O)NC(=O)[C@H](CCN)NC(=O)[C@H](CCN)NC(=O)[C@H](CC(C)C)NC(=O)[C@@H](Cc3ccccc3)NC(=O)[C@H](CCN)NC2=O)[C@H](C)O)NC(=O)[C@H](Cc2ccc(O)cc2)NC(=O)[C@H](CO)NC1=O [Ex. 107] (H-WC[Tle]SS[dP]P[Nle]SYC[dT][Dab][dDab][Dab][Dab][dF]L[Dab][Dab]T; disulfide 2-11; lactam 15-C) | 0.125 | 0.0625 | 0.125 | 0.125 | 0.5 | 0.5 | 0.25 | 0.3
CCCC[C@@H]1NC(=O)[C@@H]2CCCN2C(=O)[C@H]2CCCN2C(=O)[C@H](CO)NC(=O)[C@H](C)NC(=O)[C@H](C(C)(C)C)NC(=O)[C@@H](NC(=O)[C@H](Cc2c[nH]c3ccccc23)NC(C)=O)CSSC[C@@H](C(=O)N[C@@H](CCN)C(=O)N[C@H](C(=O)N[C@@H](CCN)C(=O)N[C@H]2CCNC(=O)[C@H]([C@@H](C)O)NC(=O)[C@H](CCN)NC(=O)[C@H](CCN)NC(=O)[C@H](CC(C)C)NC(=O)[C@@H](Cc3ccccc3)NC(=O)[C@H](CCN)NC2=O)[C@H](C)O)NC(=O)[C@H](Cc2ccc(O)cc2)NC(=O)[C@H](CO)NC1=O [Ex. 21] (Ac-WC[Tle]AS[dP]P[Nle]SYC[Dab][aThr][Dab][Dab][Dab][dF]L[Dab][Dab]T; disulfide 2-11; lactam 15-C) | 1 | 0.25 | 1 | 0.25 | 2 | 0.25 | 0.5 | <1
